Source: patent US10968462B2, “Plants having increased tolerance to herbicides” (BASF AGRO B.V., priority 2013, dated 2021)
Values joined by “and” are separate entries in the source; they are usually repeats but may differ in a detail not shown here. Equal values may be shown once.

Experiments:
[1] = system: transgenic soybean cv Jake; experiment: Soybean greenhouse spray test, clones from T0 individuals, injury 0-9 point scale 1 week after treatment (Table 7A); assay type: in vivo, Glycine max
Experimental: (§1) Soybean cv Jake was transformed as previously described by Siminszky et al., Phytochem Rev. 5:445-458 (2006). After regeneration, transformants were transplanted to soil in small pots, placed in growth chambers (16 hr day/8 hr night; 25° C. day/23° C. night; 65% relative humidity; 130-150 microE m-2 s-1) and subsequently tested for the presence of the T-DNA via Taqman analysis. After a few weeks, healthy, transgenic positive, single copy events were transplanted to larger pots and allowed to grow in the growth chamber. An optimal shoot for cutting was about 3-4 inches tall, with at least two nodes present. Each cutting was taken from the original transformant (mother plant) and dipped into rooting hormone powder (indole-3-butyric acid, IBA). The cutting was then placed in oasis wedges inside a bio-dome. The mother plant was taken to maturity in the greenhouse and harvested for seed. Wild type cuttings were also taken simultaneously to serve as negative controls. The cuttings were kept in the bio-dome for 5-7 days and then transplanted to 3 inch pots and then acclimated in the growth chamber for two more days. […] Other herbicides, such as AHAS (ALS—Acetolactate Synthase) inhibiting herbicides were also tested in a similar fashion for confirming cross resistance to other modes of action: Tritosulfuron, Florasulam, Metsulfuron, Rimsulfuron. Herbicide injury evaluations were taken at 2, 7, 14 and 21 days after treatment.
(§2) • 0 No Injury • 1 Minimal injury, only a few patches of leaf injury or chlorosis. • 2 Minimal injury with slightly stronger chlorosis. Overall growth points remain undamaged. • 3 Slightly stronger injury on secondary leaf tissue, but primary leaf and growth points are still undamaged. • 4 Overall plant morphology is slightly different, some chlorosis and necrosis in secondary growth points and leaf tissue. Stems are intact. Regrowth is highly probable within 1 week. • 5 Overall plant morphology is clearly different, some chlorosis and necrosis on a few leaves and growth points, but primary growth point is intact. Stem tissue is still green. Regrowth is highly probably within 1 week. • 6 Strong injury can be seen on the new leaflet growth. Plant has a high probability to survive only through regrowth at different growth points. Most of the leaves are chlorotic/necrotic but stem tissue is still green. May have regrowth but with noticeable injured appearance. • 7 Most of the active growth points are necrotic. There may be a single growth point that could survive and may be partially chlorotic or green and partially necrotic. Two leaves may still be chlorotic with some green; the rest of the plant including stem is necrotic. • 8 Plant will likely die, and all growth points are necrotic. One leaf may still be chlorotic with some green. The remainder of the plant is necrotic. • 9 Plant is dead. • * Not tested

[2] = system: transgenic T2 soybean plants; experiment: Soybean greenhouse spray test, T2 plants at V2-V3 stage, injury 0-9 point scale 1 or 2 weeks after treatment (Tables 7C-7E); assay type: in vivo, Glycine max; conditions: 2 week after treatment
Experimental: as §1, §2

CC(C)N(C)S(=O)(=O)NC(=O)c1cc(-n2c(=O)cc(C(F)(F)F)n(C)c2=O)c(F)cc1Cl [Saflufenacil, saflufenacil]
injury (0-9 point scale) 1 week after treatment ([1]; Saflufenacil 12.5 g ai/ha, GOI AmtuPPX2L_F420L stacked with Bradi_1g07930.1_Zm): 6 and 5 and 0 (2×) and 1 (2×)
injury (0-9 point scale) 1 week after treatment ([1]; Saflufenacil 12.5 g ai/ha, GOI Bradi_1g07930.1_Zm): 4 (2×) and 1 and 6 (3×) and 0
injury (0-9 point scale) 1 week after treatment ([1]; Saflufenacil 25 g ai/ha, GOI AmtuPPX2L_F420L stacked with Bradi_1g07930.1_Zm): 6 and 0 (2×) and 2 (2×)
injury (0-9 point scale) 1 week after treatment ([1]; Saflufenacil 25 g ai/ha, GOI Bradi_1g07930.1_Zm): 6 (4×) and 5 (2×) and 1
injury (0-9 point scale) 1 week after treatment ([1]; Saflufenacil 50 g ai/ha, GOI AmtuPPX2L_F420L stacked with Bradi_1g07930.1_Zm): 5 (2×) and 6 and 1 (3×) and 2 (3×)
injury (0-9 point scale) 1 week after treatment ([1]; Saflufenacil 50 g ai/ha, GOI AmtuPPX2L_R128A_F420L stacked with Bradi_1g07930.1_Zm): 1
injury (0-9 point scale) 1 week after treatment ([1]; Saflufenacil 50 g ai/ha, GOI AmtuPPX2L_R128A_F420V stacked with Bradi_1g07930.1_Zm): 1 (4×) and 2 (2×) and 6 and 4 and 3
injury (0-9 point scale) 1 week after treatment ([1]; Saflufenacil 50 g ai/ha, GOI Bradi_1g07930.1_Zm): 6 (2×) and 5
injury (0-9 point scale) 1 week after treatment ([1]; Saflufenacil 100 g ai/ha, GOI AmtuPPX2L_F420L stacked with Bradi_1g07930.1_Zm): 3 and 6 and 2
injury (0-9 point scale) 1 week after treatment ([1]; Saflufenacil 100 g ai/ha, GOI AmtuPPX2L_R128A_F420L stacked with Bradi_1g07930.1_Zm): 0 and 3 and 1 (3×) and 2 (4×) and 6 and 4
injury (0-9 point scale) 1 week after treatment ([1]; Saflufenacil 100 g ai/ha, GOI AmtuPPX2L_R128A_F420V stacked with Bradi_1g07930.1_Zm): 3 (5×) and 0 and 1 and 7 and 2 and 5 and 4
injury (0-9 point scale) 1 week after treatment ([1]; Saflufenacil 100 g ai/ha, GOI Bradi_1g07930.1_Zm): 8 and 6
injury (0-9 point scale) 1 week after treatment ([1]; Saflufenacil 200 g ai/ha, GOI AmtuPPX2L_F420L stacked with Bradi_1g07930.1_Zm): 2 (2×) and 6
injury (0-9 point scale) 1 week after treatment ([1]; Saflufenacil 200 g ai/ha, GOI AmtuPPX2L_R128A_F420L stacked with Bradi_1g07930.1_Zm): 1 and 5 (2×) and 3 (2×) and 2 (4×) and 0 and 4
injury (0-9 point scale) 1 week after treatment ([1]; Saflufenacil 200 g ai/ha, GOI AmtuPPX2L_R128A_F420V stacked with Bradi_1g07930.1_Zm): 2 (4×) and 5 (2×) and 3 (2×) and 7 and 6 and 8

COc1nc(NC(=O)NS(=O)(=O)c2ccccc2C(F)(F)F)nc(C(F)(F)F)n1 [Tritosulfuron]
injury on a 0-9 point scale ([2]; Bradi_1g07930.1 (Event 1), 4.375 g ai/ha): 1.5
injury on a 0-9 point scale ([2]; Bradi_1g07930.1 (Event 1), 8.75 g ai/ha): 0.5
injury on a 0-9 point scale ([2]; Bradi_1g07930.1 (Event 1), 17.5 g ai/ha): 1.7
injury on a 0-9 point scale ([2]; Bradi_1g07930.1 (Event 1), 35 g ai/ha): 2.3
injury on a 0-9 point scale ([2]; Bradi_1g07930.1 (Event 1), 70 g ai/ha): 1.5
injury on a 0-9 point scale ([2]; Bradi_1g07930.1 (Event 1), 140 g ai/ha): 0.3
injury on a 0-9 point scale ([2]; R128A_F420V (Event 1), 4.375 g ai/ha): 5.3
injury on a 0-9 point scale ([2]; R128A_F420V (Event 1), 8.75 g ai/ha): 6.0
injury on a 0-9 point scale ([2]; R128A_F420V (Event 1), 17.5 g ai/ha): 7.0
injury on a 0-9 point scale ([2]; R128A_F420V (Event 1), 35 g ai/ha): 7.0
injury on a 0-9 point scale ([2]; R128A_F420V (Event 1), 70 g ai/ha): 7.0
injury on a 0-9 point scale ([2]; R128A_F420V (Event 1), 140 g ai/ha): 6.5
injury on a 0-9 point scale ([2]; R128A_F420V (Event 2), 4.375 g ai/ha): 6.0
injury on a 0-9 point scale ([2]; R128A_F420V (Event 2), 8.75 g ai/ha): 6.5
injury on a 0-9 point scale ([2]; R128A_F420V (Event 2), 17.5 g ai/ha): 7.0
injury on a 0-9 point scale ([2]; R128A_F420V (Event 2), 35 g ai/ha): 7.0
injury on a 0-9 point scale ([2]; R128A_F420V (Event 2), 70 g ai/ha): 7.0
injury on a 0-9 point scale ([2]; R128A_F420V (Event 2), 140 g ai/ha): 8.0
injury on a 0-9 point scale ([2]; R128A_F420V + Bradi_1g07930.1 (Event 1), 4.375 g ai/ha): 0.3
injury on a 0-9 point scale ([2]; R128A_F420V + Bradi_1g07930.1 (Event 1), 8.75 g ai/ha): 0.3
injury on a 0-9 point scale ([2]; R128A_F420V + Bradi_1g07930.1 (Event 1), 17.5 g ai/ha): 1.5
injury on a 0-9 point scale ([2]; R128A_F420V + Bradi_1g07930.1 (Event 1), 35 g ai/ha): 2.0
injury on a 0-9 point scale ([2]; R128A_F420V + Bradi_1g07930.1 (Event 1), 70 g ai/ha): 2.7
injury on a 0-9 point scale ([2]; R128A_F420V + Bradi_1g07930.1 (Event 1), 140 g ai/ha): 1.3
injury on a 0-9 point scale ([2]; R128A_F420V + Bradi_1g07930.1 (Event 2), 4.375 g ai/ha): 1.0
injury on a 0-9 point scale ([2]; R128A_F420V + Bradi_1g07930.1 (Event 2), 8.75 g ai/ha): 2.3
injury on a 0-9 point scale ([2]; R128A_F420V + Bradi_1g07930.1 (Event 2), 17.5 g ai/ha): 1.5
injury on a 0-9 point scale ([2]; R128A_F420V + Bradi_1g07930.1 (Event 2), 35 g ai/ha): 1.0
injury on a 0-9 point scale ([2]; R128A_F420V + Bradi_1g07930.1 (Event 2), 70 g ai/ha): 3.0
injury on a 0-9 point scale ([2]; R128A_F420V + Bradi_1g07930.1 (Event 2), 140 g ai/ha): 3.0
injury on a 0-9 point scale ([2]; wild type, 4.375 g ai/ha): 8.0
injury on a 0-9 point scale ([2]; wild type, 8.75 g ai/ha): 8.0
injury on a 0-9 point scale ([2]; wild type, 17.5 g ai/ha): 8.0
injury on a 0-9 point scale ([2]; wild type, 35 g ai/ha): 8.3
injury on a 0-9 point scale ([2]; wild type, 70 g ai/ha): 8.3
injury on a 0-9 point scale ([2]; wild type, 140 g ai/ha): 8.3

CCS(=O)(=O)c1cccnc1S(=O)(=O)NC(=O)Nc1nc(OC)cc(OC)n1 [Rimsulfuron]
injury on a 0-9 point scale ([2]; Bradi_1g07930.1 (Event 1), 10 g ai/ha): 6.0
injury on a 0-9 point scale ([2]; Bradi_1g07930.1 (Event 1), Rimsulfuron 1.25 g ai/ha): 6.0
injury on a 0-9 point scale ([2]; Bradi_1g07930.1 (Event 1), Rimsulfuron 2.5 g ai/ha): 6.0
injury on a 0-9 point scale ([2]; Bradi_1g07930.1 (Event 1), Rimsulfuron 5 g ai/ha): 6.0
injury on a 0-9 point scale ([2]; R128A_F420V (Event 1), 10 g ai/ha): 7.5
injury on a 0-9 point scale ([2]; R128A_F420V (Event 1), Rimsulfuron 1.25 g ai/ha): 6.5
injury on a 0-9 point scale ([2]; R128A_F420V (Event 1), Rimsulfuron 5 g ai/ha): 7.0
injury on a 0-9 point scale ([2]; R128A_F420V (Event 2), 10 g ai/ha): 7.0
injury on a 0-9 point scale ([2]; R128A_F420V (Event 2), Rimsulfuron 1.25 g ai/ha): 6.0
injury on a 0-9 point scale ([2]; R128A_F420V (Event 2), Rimsulfuron 2.5 g ai/ha): 7.0
injury on a 0-9 point scale ([2]; R128A_F420V (Event 2), Rimsulfuron 5 g ai/ha): 7.0
injury on a 0-9 point scale ([2]; R128A_F420V + Bradi_1g07930.1 (Event 1), 10 g ai/ha): 4.3
injury on a 0-9 point scale ([2]; R128A_F420V + Bradi_1g07930.1 (Event 1), Rimsulfuron 1.25 g ai/ha): 4.0
injury on a 0-9 point scale ([2]; R128A_F420V + Bradi_1g07930.1 (Event 1), Rimsulfuron 2.5 g ai/ha): 3.5
injury on a 0-9 point scale ([2]; R128A_F420V + Bradi_1g07930.1 (Event 1), Rimsulfuron 5 g ai/ha): 3.3
injury on a 0-9 point scale ([2]; R128A_F420V + Bradi_1g07930.1 (Event 2), 10 g ai/ha): 5.0
injury on a 0-9 point scale ([2]; R128A_F420V + Bradi_1g07930.1 (Event 2), Rimsulfuron 1.25 g ai/ha): 3.0
injury on a 0-9 point scale ([2]; R128A_F420V + Bradi_1g07930.1 (Event 2), Rimsulfuron 2.5 g ai/ha): 4.0
injury on a 0-9 point scale ([2]; R128A_F420V + Bradi_1g07930.1 (Event 2), Rimsulfuron 5 g ai/ha): 4.5
injury on a 0-9 point scale ([2]; wild type, 10 g ai/ha): 8.5
injury on a 0-9 point scale ([2]; wild type, Rimsulfuron 1.25 g ai/ha): 8.0
injury on a 0-9 point scale ([2]; wild type, Rimsulfuron 2.5 g ai/ha): 8.5
injury on a 0-9 point scale ([2]; wild type, Rimsulfuron 5 g ai/ha): 8.3
